Test results taken from ChEMBL document CHEMBL1125021, “4-[(Carboxymethyl)oxy]- and 4-[(carboxymethyl)amino]-5,7-dichloroquinoline-2-carboxylic acid: new antagonists of the strychnine-insensitive glycine binding site on the N-methyl-D-aspartate receptor complex” (J Med Chem, 1990).

What was measured:
[1] = Antagonistic activity against N-methyl-D-aspartate glutamate receptor induced cGMP in rat cerebellar slices..; format: functional
Glutamate NMDA receptor [2] = assay: Binding activity against N-methyl-D-aspartate glutamate receptor in rat brain homogenate using [3H]-glycine as the radioligand.; format: tissue-based
Glutamate NMDA receptor [3] = assay: Binding activity against N-methyl-D-aspartate glutamate receptor in rat brain homogenate using [3H]CPP as the radioligand.; format: tissue-based
[4] = Selectivity ratio as the ratio of IC50 values for [3H]CPP/[3H]-gly

Which IC50 [1] does the source give for `O=C(O)CNc1cc(C(=O)O)nc2cc(Cl)cc(Cl)c12` here?
The IC50 was 3.6 µM.

What about the IC50 (Glutamate NMDA receptor [2]) of the same molecule?
The IC50 was 0.1 µM.

And the IC50 (Glutamate NMDA receptor [3])?
Its IC50 is 140 µM.

And the Ratio [4]?
Its Ratio is 1400.

With `O=C(O)COc1cc(C(=O)O)nc2cc(Cl)cc(Cl)c12` as the molecule, how does the IC50 [1] read?
The IC50 was 225 µM.

And the IC50 (Glutamate NMDA receptor [2])?
The IC50 was 9 µM.

And the IC50 (Glutamate NMDA receptor [3])?
Its IC50 is 893 µM.

And the Ratio [4]?
Its Ratio is 99.

For `O=C(O)c1cc(O)c2c(Cl)cc(Cl)cc2n1`, which IC50 [1] is on record?
The IC50 was 3.5 µM.

And the IC50 (Glutamate NMDA receptor [3])?
Its IC50 is 37 µM.

What about the Ratio [4] of the same molecule?
Its Ratio is 463.

Which IC50 [1] does the source give for `O=C(O)c1cc(O)c2ccc(Cl)cc2n1` [7-CHLOROKYNURENIC ACID] here?
Its IC50 is 8 µM.

And the Ratio [4]?
Its Ratio is 405.
